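These data come from cells grown in 96-well plates and exposed to compound for 48 hours at five concentrations. GI50 is the concentration that inhibits growth by half. TGI denotes the concentration required for complete inhibition of growth.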
Assays:
Assay in all cases: DTP human tumour cell line panel, 48 h
[1] = tested on: SF-295 CNS
[2] = tested on: MDA-MB-231 breast
[3] = tested on: SK-MEL-5 melanoma
[4] = tested on: NCI-H23 lung
[5] = tested on: HS 578T breast
[6] = tested on: T-47D breast
[7] = tested on: OVCAR-5 ovarian
[8] = tested on: HCT-116 colon
[9] = tested on: SNB-75 CNS
[10] = tested on: HL-60(TB) leukemia
[11] = tested on: OVCAR-3 ovarian
[12] = tested on: SR leukemia
[13] = tested on: A498 renal
[14] = tested on: UACC-257 melanoma
[15] = tested on: HCC-2998 colon
[16] = tested on: HOP-92 NSCLC
[17] = tested on: DU-145 prostate
[18] = tested on: PC-3 prostate
[19] = tested on: EKVX NSCLC
[20] = tested on: SK-MEL-2 melanoma
[21] = tested on: 786-0 renal
[22] = tested on: CCRF-CEM leukemia
[23] = tested on: OVCAR-8 ovarian
[24] = tested on: MDA-MB-435
[25] = tested on: NCI/ADR-RES ovarian
[26] = tested on: RXF 393 renal
[27] = tested on: CAKI-1 renal
[28] = tested on: MALME-3M melanoma
[29] = tested on: LOX IMVI melanoma
[30] = tested on: MOLT-4 leukemia
[31] = tested on: NCI-H522 lung
[32] = tested on: MDA-MB-468 breast
[33] = tested on: HOP-62 NSCLC
[34] = tested on: HT29 colon
[35] = tested on: UACC-62 melanoma
[36] = tested on: NCI-H460 lung
[37] = tested on: TK-10 renal
[38] = tested on: NCI-H226 lung
[39] = tested on: SNB-19 CNS
[40] = tested on: M14 melanoma
[41] = tested on: SF-268 CNS
[42] = tested on: U251 CNS
[43] = tested on: A549 NSCLC
[44] = tested on: MCF7 breast
[45] = tested on: RPMI-8226 leukemia
[46] = tested on: ACHN renal
[47] = tested on: K-562 leukemia
[48] = tested on: SK-OV-3 ovarian
[49] = tested on: OVCAR-4 ovarian
[50] = tested on: IGROV1 ovarian
[51] = tested on: HCT-15 colon
[52] = tested on: KM12 colon
[53] = tested on: BT-549 breast
[54] = tested on: UO-31 renal
[55] = tested on: SW-620 colon
[56] = tested on: COLO 205 colon
[57] = tested on: SK-MEL-28 melanoma
[58] = tested on: SN12C renal
[59] = tested on: SF-539 CNS

Compound `CCOC(=O)c1ccc(NC(=S)NC(=O)c2ccc(NC(=O)C(C)C)cc2OC)cc1` has a GI50 [1] of 8.33 µM, a TGI [1] of 45.4 µM and a GI50 [2] of 16.2 µM. It also gave a TGI [2] of 53.2 µM, a GI50 [3] of 2.14 µM and a TGI [3] of 5.79 µM. It also gave a GI50 [4] of 3.71 µM, a TGI [4] of 29.7 µM and a GI50 [5] of 31.7 µM. It also gave a TGI [5] greater than 100 µM, a GI50 [6] of 2.35 µM and a TGI [6] of 11.2 µM. For the same compound, the GI50 [7] was 29.7 µM, the TGI [7] was greater than 100 µM and the GI50 [8] was 3.99 µM. For the same compound, the TGI [8] was 51.5 µM, the GI50 [9] was 3.54 µM and the TGI [9] was 62.7 µM. It also gave a GI50 [10] of 2.45 µM, a TGI [10] of 25.2 µM and a GI50 [11] of 15.3 µM. For the same compound, the TGI [11] was greater than 100 µM, the GI50 [12] was 6.04 µM and the TGI [12] was greater than 100 µM. The GI50 [13] was 28.1 µM, the TGI [13] was greater than 100 µM and the GI50 [14] was 12.5 µM. It also gave a TGI [14] greater than 100 µM, a GI50 [15] of 20.3 µM and a TGI [15] greater than 100 µM. For the same compound, the GI50 [16] was 13.8 µM, the TGI [16] was 44.8 µM and the GI50 [17] was 34.7 µM. For the same compound, the TGI [17] was greater than 100 µM, the GI50 [18] was 6.41 µM and the TGI [18] was 69.9 µM. For the same compound, the GI50 [19] was 15.7 µM, the TGI [19] was 99.8 µM and the GI50 [20] was 14.9 µM. For the same compound, the TGI [20] was 62.9 µM, the GI50 [21] was 21.9 µM and the TGI [21] was 60.4 µM. It also gave a GI50 [22] of 2.93 µM, a TGI [22] of 50 µM and a GI50 [23] of 16.4 µM. For the same compound, the TGI [23] was greater than 100 µM, the GI50 [24] was 15.2 µM and the TGI [24] was greater than 100 µM. It also gave a GI50 [25] of 12.6 µM, a TGI [25] of 48.3 µM and a GI50 [26] of 15.7 µM. It also gave a TGI [26] of 82.5 µM, a GI50 [27] of 17.8 µM and a TGI [27] of 80.8 µM. It also gave a GI50 [28] of 4.28 µM, a TGI [28] of 32.6 µM and a GI50 [29] of 11.6 µM. It also gave a TGI [29] greater than 100 µM, a GI50 [30] of 2.22 µM and a TGI [30] of 5.97 µM. It also gave a GI50 [31] of 3.79 µM, a TGI [31] greater than 100 µM and a GI50 [32] of 2.04 µM. The TGI [32] was 8.09 µM, the GI50 [33] was 22.1 µM and the TGI [33] was 72.3 µM. For the same compound, the GI50 [34] was 39.3 µM, the TGI [34] was greater than 100 µM and the GI50 [35] was 11.7 µM. It also gave a TGI [35] of 53.7 µM, a GI50 [36] of 7.17 µM and a TGI [36] greater than 100 µM. The GI50 [37] was 22.3 µM, the TGI [37] was 76.6 µM and the GI50 [38] was 4.46 µM. It also gave a TGI [38] of 36.8 µM, a GI50 [39] of 14.8 µM and a TGI [39] of 66.9 µM. For the same compound, the GI50 [40] was 5.83 µM, the TGI [40] was 63.1 µM and the GI50 [41] was 20.7 µM. The TGI [41] was greater than 100 µM, the GI50 [42] was 12.3 µM and the TGI [42] was 46 µM. For the same compound, the GI50 [43] was 33.4 µM, the TGI [43] was greater than 100 µM and the GI50 [44] was 3.26 µM. The TGI [44] was 37.2 µM, the GI50 [45] was 2.66 µM and the TGI [45] was 17.5 µM. It also gave a GI50 [46] of 26 µM, a TGI [46] greater than 100 µM and a GI50 [47] of 3.28 µM. It also gave a TGI [47] greater than 100 µM, a GI50 [48] of 35.6 µM and a TGI [48] greater than 100 µM. The GI50 [49] was 9.21 µM, the TGI [49] was 71.6 µM and the GI50 [50] was 19.3 µM. For the same compound, the TGI [50] was greater than 100 µM, the GI50 [51] was 4.24 µM and the TGI [51] was greater than 100 µM. For the same compound, the GI50 [52] was 6.37 µM, the TGI [52] was greater than 100 µM and the GI50 [53] was 1.97 µM. For the same compound, the TGI [53] was 6.52 µM, the GI50 [54] was 11.3 µM and the TGI [54] was 79.3 µM. It also gave a GI50 [55] of 8.22 µM, a TGI [55] greater than 100 µM and a GI50 [56] of 15.5 µM. For the same compound, the TGI [56] was 42.3 µM, the GI50 [57] was 14 µM and the TGI [57] was greater than 100 µM. For the same compound, the GI50 [58] was 28.5 µM, the TGI [58] was greater than 100 µM and the GI50 [59] was 27.7 µM. The TGI [59] was greater than 100 µM.
